Among the test systems are OVCAR-3; TK-10; NCI-H522; SF-539; HOP-92; T47D; MDA-N; HL-60; HCT-116; SN12C; SK-MEL-5; HCT-15; M14; BT-549; UO-31; SK-MEL-2; SW-620; HOP-62; CAKI-1.
Holding throughout (assay): NCI-60 cell line screen, 48 h

We go through 4 compounds from ChEMBL document CHEMBL1201862, “PubChem BioAssay data set” (2004).

The structures appear in SMILES notation.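 Five compound concentrations were applied to cells in 96-well plates for 48 hours; endpoints were derived by simple linear interpolation of the resulting dose-response curve. Abbreviation: GI50, concentration required for 50% inhibition of growth.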 Active and inactive are the calls of the source. Cut-off read from the data, not from the text of the source: active = GI50 up to about 1.1 µM and inactive = higher.

For `Fc1ccc2nc3n(c2c1)C(c1c(F)cccc1F)SC3` (stereo unspecified), the GI50 in the assay on OVCAR-3 is 54.8 µM (inactive); in the assay on TK-10, 96.4 µM (inactive); in the assay on NCI-H522, 28.1 µM (inactive); with SF-539, > 100 µM (inactive); in the assay with HOP-92, 46 µM (inactive); in the assay with T47D, 40.6 µM (inactive). Further, the GI50 in the assay with MDA-N was 26.7 µM (inactive); in the assay with HL-60 it was 17.7 µM (inactive); with HCT-116, 24.5 µM (inactive); in the assay on SN12C, 77.4 µM (inactive); in the assay with SK-MEL-5 it was 26.7 µM (inactive); in the assay on HCT-15, 51.8 µM. Further, the GI50 in the assay with M14 was 49.1 µM (inactive); in the assay on BT-549, 70 µM (inactive); in the assay with UO-31, 30.9 µM (inactive); in the assay on SK-MEL-2 it was 96.8 µM (inactive); with SW-620 it was 49.5 µM (inactive); in the assay on HOP-62, > 100 µM (inactive). Besides, the GI50 in the assay with CAKI-1 was 35.2 µM (inactive).

As to `Cn1c(=S)[nH]c2sc3c(c2c1=O)CCSC3`, the GI50 with OVCAR-3 is 24.8 µM (inactive); with TK-10 it was 80.5 µM (inactive); in the assay on NCI-H522, 36.9 µM (inactive); in the assay with SF-539 it was 54.1 µM (inactive); in the assay with HOP-92 it was 23.9 µM (inactive); in the assay on T47D, 25.1 µM (inactive). Besides, the GI50 with MDA-N was 54.7 µM (inactive); in the assay with HL-60, 16.7 µM (inactive); with HCT-116, 34.8 µM (inactive); with SN12C, 40 µM (inactive); in the assay with SK-MEL-5, 36 µM (inactive); in the assay with HCT-15, 31 µM. Moreover, the GI50 with M14 is 35.2 µM (inactive); in the assay on BT-549 it was 32.4 µM (inactive); in the assay with UO-31, 11.7 µM (inactive); in the assay on SK-MEL-2, > 100 µM (inactive); in the assay on SW-620 it was 35.7 µM (inactive); with HOP-62 it was 25.9 µM (inactive). In the assay with CAKI-1, the GI50 is 44.8 µM (inactive).

For the compound `CCOC(=O)NC(NCC(O)c1ccccc1)(C(F)(F)F)C(F)(F)F` (stereo unspecified), the GI50 with OVCAR-3, with TK-10, in the assay on NCI-H522, with SF-539, with HOP-92 and with T47D was > 100 µM (inactive) in each case. Further, the GI50 with MDA-N is > 100 µM (inactive); in the assay on HL-60, > 100 µM (inactive); in the assay on HCT-116, > 100 µM (inactive); in the assay with SN12C, > 100 µM (inactive); in the assay on SK-MEL-5, > 100 µM (inactive); in the assay with HCT-15, above 100 µM. The GI50 in the assay on M14, in the assay with BT-549, in the assay with UO-31, in the assay with SK-MEL-2, in the assay with SW-620 and in the assay on HOP-62 was > 100 µM (inactive) throughout. For the same compound, the GI50 in the assay with CAKI-1 is > 100 µM (inactive).

Turning to `c1ccc(N2N=C3N(c4ccccc4)C2N3c2ccccc2)cc1`, the GI50 with OVCAR-3 is 36.6 µM (inactive); with TK-10, 71.3 µM (inactive); with NCI-H522, 21.6 µM (inactive); with SF-539, 22.3 µM (inactive); in the assay with HOP-92 it was 14.1 µM (inactive); in the assay with T47D, 52.4 µM (inactive). The GI50 was 19.4 µM (inactive) in the assay with MDA-N; 38.5 µM (inactive) with HL-60; 31.3 µM (inactive) in the assay on HCT-116; 48 µM (inactive) with SN12C; 21.6 µM (inactive) in the assay on SK-MEL-5; 42.9 µM with HCT-15. For the same compound, the GI50 with M14 was 20.3 µM (inactive); in the assay on BT-549, 68.2 µM (inactive); in the assay on UO-31, 58.9 µM (inactive); in the assay with SK-MEL-2, 24.3 µM (inactive); in the assay with SW-620, 33.4 µM (inactive); with HOP-62, 58.2 µM (inactive). Besides, the GI50 in the assay on CAKI-1 was 88.7 µM (inactive).
